For this experiment, the system named is HIF-regulated genes. As to the kind of experiment: Expression of HIF-regulated genes in vivo, Murine genome U74AV2 array. More on the design: species or system mouse. As to conditions: 100 mg/kg oral gavage. Here is the method: Twenty four Swiss Webster male mice (30-32 g) were obtained from Simonsen, Inc., and treated by oral gavage with a 4 ml/kg volume of either 0.5% CMC (Sigma-Aldrich) (0 mg/kg/day) or […] Compound A (25 mg/ml in 0.5% CMC) (100 mg/kg). At 4, 8, 16, 24, 48, or 72 hours after the final dose, animals were anesthetized with isoflurane and a blood sample was collected from the abdominal vein. The blood sample was collected into a MICROTAINER serum separator tube (Becton-Dickinson, Franklin Lakes N.J.), incubated at room temperature for 30 minutes, centrifuged at 8,000 rpm at 4° C. for 10 min, and cell pellet was resuspended in […] solution (Ambion) and stored at −80° C. The mice were then sacrificed and tissue samples of kidney, liver, brain, lung, and heart were isolated and stored in […] solution (Ambion) at −80° C.
RNA isolation was carried out using the following protocol. […] The RNA was eluted into 80 μL of water and quantitated with RIBOGREEN reagent (Molecular Probes, Eugene Oreg.). […] The absorbance at 260 and 280 nm was measured to determine RNA purity and concentration.
Alternatively, tissue samples were diced and homogenized in TRIZOL reagent (Invitrogen Life Technologies, Carlsbad Calif.) using a rotor-stator POLYTRON homogenizer (Kinematica). […] The absorbance at 260 and 280 nm was measured to determine RNA purity and concentration. […]

Molecules are shown by their SMILES.

From patent US8466172B2, “Stabilization of hypoxia inducible factor (HIF) alpha” (FibroGen, Inc., priority 2001, dated 2013) come the findings set out here.

Regarding `O=C(O)c1c[nH]c2c(ccc3cccnc32)c1=O` [Compound A, 4-oxo-1,4-dihydro-[1,10]phenanthroline-3-carboxylic acid], the “expression of genes encoding glycolytic enzymes (FIG. 7A)” value (mouse kidney) is “increased”. In addition, where the note is “mouse lung”, the “expression of genes encoding angiogenic proteins (FIG. 5A)” value is recorded as “increased”.
